According to publication PMC8026785, “The pharmacokinetics of [^18F]UCB-H revisited in the healthy non-human primate brain” (EJNMMI Research, 2021):

Test: Plasma free fraction by ultrafiltration
Assay type: in vitro ADME
Conditions: NHP plasma, before tracer injection
Procedure: The fraction of [^18F]UCB-H in NHP plasma samples not bound to plasma protein was measured before PET injection using a previously described ultrafiltration method. In brief, standard amounts of [^18F]UCB-H (≈15 kBq) were added to 200 μL plasma that was applied to Microcon® filtration devices containing an YM-10 membrane (Millipore, France). The devices were centrifuged for 10 min at 10,000 g (Sigma 2-16KL, France). [^18F]UCB-H activity concentration in the resulting ultrafiltrate (≈70 μL, CFP) and a sample of plasma (CP) were counted. The free fraction (fp) was calculated as: fp = CFP/CP and measured in triplicates.

Plasma free parent fraction (fp): 42.6 ± 1.6%
Compound: O=C1C[C@H](c2cc(F)c(F)c(F)c2)CN1Cc1ccncc1[18F] [[^18F]UCB-H]
